Assay in all cases: DTP human tumour cell line panel, 48 h
Assay [1] concerns U-251.
Assay [2] relates to SNB-19.
The subject of assay [3] is HT-29.
The test system of assay [4] is OVCAR-8.
In assay [5] the test system is A498.
For assay [6], the system named is HCT-15.
For assay [7], the system named is Malme-3M.
In assay [8] the test system is TK-10.
Assay [9] has as its system NCI-H226.
The subject of assay [10] is UO-31.
The subject of assay [11] is NCI-H460.
Assay [12] deals with IGROV-1.
The test system of assay [13] is SN12C.
Assay [14] deals with SF-539.
Assay [15] has as its system A549.
The test system of assay [16] is UACC-257.
For assay [17], the system named is MOLT-4.
Assay [18] relates to HOP-62.
The test system of assay [19] is PC-3.

By GI50 is commonly meant the concentration at which growth is held to half of that of the control.

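Exposure lasted 48 hours, with cells grown in 96-well plates and compounds tested at five concentrations. At the GI50, growth is halved.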 Calls of active or inactive are those of the source. Cut-off read from the data, not from the text of the source: active = GI50 up to about 1.1 µM and inactive = higher. Where only a bound is given, the exact number is not on record here.

As to `O=C1/C(=C/c2ccccc2)CN(C(=O)Oc2ccc([N+](=O)[O-])cc2)C/C1=C\c1ccccc1`, the GI50 was 1.77 µM (inactive) in assay [1]; 6.65 µM (inactive) in [2]; 1.42 µM (inactive) in assay [3]; 1.12 µM (active) in [4]; > 10 µM (inactive) in assay [5]; 2.08 µM in assay [6]. In addition, the GI50 in assay [7] is > 10 µM (inactive); in assay [8], > 10 µM (inactive); in assay [9], > 10 µM (inactive); in assay [10] it was 9.77 µM (inactive); in [11], 6.03 µM (inactive); in assay [12], 6.84 µM (inactive). Further, the GI50 in assay [13] is 2.79 µM (inactive); in [14] it was 9.42 µM (inactive); in [15] it was > 10 µM (inactive); in [16], 5.18 µM (inactive); in [17], 0.649 µM (active); in [18] it was > 10 µM (inactive).

In the case of `COc1ccccc1NC(=O)C(CC(C(=O)Nc1ccccc1OC)/C(C)=N/NC(=O)c1ccccc1O)/C(C)=N/NC(=O)c1ccccc1O` (centres undefined), the GI50 was 59 µM (inactive) in [1]; 61.7 µM (inactive) in assay [2]; > 100 µM (inactive) in assay [3]; 75 µM (inactive) in assay [4]; 65 µM (inactive) in assay [5]; > 100 µM (inactive) in assay [7]. Also, the GI50 was > 100 µM (inactive) in [8]; 60.3 µM (inactive) in assay [9]; 40.4 µM (inactive) in [10]; 57.9 µM (inactive) in assay [11]; > 100 µM (inactive) in assay [12]; > 100 µM (inactive) in assay [13]. In addition, the GI50 in assay [14] is 54.2 µM (inactive); in assay [15], 82.4 µM (inactive); in [16], > 100 µM (inactive); in assay [17], 47.5 µM (inactive); in assay [18] it was > 100 µM (inactive).

On to `O=[N+]([O-])c1ccc(-c2ccc(/C=N/n3c(S)nnc3-c3ccc(Cl)cc3)o2)cc1`, for which the GI50 in assay [1] is 21.6 µM (inactive); in [2], 23 µM (inactive); in assay [3], 22 µM (inactive); in [4], > 50 µM (inactive); in assay [5] it was > 100 µM (inactive); in assay [6] it was 22.6 µM. Besides, the GI50 in assay [7] is 17.4 µM (inactive); in assay [8] it was 31 µM (inactive); in [9], > 38.6 µM (inactive); in [10] it was > 24.2 µM (inactive); in assay [11], 21.5 µM (inactive); in [12], > 81.3 µM (inactive). In addition, the GI50 in assay [13] was > 49.2 µM (inactive); in [14], > 40.2 µM (inactive); in assay [15], 28 µM (inactive); in [16] it was > 57.5 µM (inactive); in assay [17], 15 µM (inactive); in assay [18] it was 17.5 µM (inactive).

On to `Cc1cc(N(CCC#N)CCC#N)ccc1/C=C/C(=O)Nc1cccc(Cl)c1`, for which the GI50 in assay [1] was > 100 µM (inactive); in assay [2], > 100 µM (inactive); in assay [3], > 100 µM (inactive); in assay [4], > 100 µM (inactive); in [5], > 100 µM (inactive); in [6], 38.5 µM. Further, the GI50 is > 100 µM (inactive) in assay [7]; > 100 µM (inactive) in assay [8]; > 100 µM (inactive) in assay [9]; 27.6 µM (inactive) in assay [10]; > 100 µM (inactive) in assay [11]; > 100 µM (inactive) in assay [12]. Also, the GI50 in assay [13], in assay [14], in [15], in assay [16], in [17] and in assay [18] was > 100 µM (inactive) each time.

Consider `C/C(CC(=O)Nc1cc(C)ccc1C)=N/N=C(N)N`, for which the GI50 in assay [1], in [3], in assay [4], in assay [5], in [7] and in assay [8] was > 100 µM (inactive) in each case. Further, the GI50 in assay [9], in [10], in assay [11], in [12], in assay [14] and in assay [15] was > 100 µM (inactive) throughout. In addition, the GI50 in [16], in assay [17] and in assay [18] was > 100 µM (inactive) in each case.

Take `CC(=O)Oc1ccc2cc(Oc3ccc(Cl)c(Cl)c3)c(=O)oc2c1`: the GI50 in assay [1] is 16 µM (inactive); in assay [2], 27.9 µM (inactive); in assay [3], 35.5 µM (inactive); in assay [4], 32 µM (inactive); in [19], 24.7 µM (inactive); in assay [5], 22.3 µM (inactive). Besides, the concentration for 50% growth inhibition (GI50) in assay [6] is 14.6 µM; in assay [7], 29.2 µM (inactive); in [8] it was 17.9 µM (inactive); in assay [9], 26.6 µM (inactive); in assay [10], 15.5 µM (inactive); in assay [11], 24 µM (inactive). For the same molecule, the GI50 in assay [12] is 29.4 µM (inactive); in [13] it was 24.9 µM (inactive); in assay [14] it was 19.7 µM (inactive); in assay [15], 31.3 µM (inactive); in [16], 25.1 µM (inactive); in [17] it was 18.3 µM (inactive). In addition, the GI50 in [18] was 25.2 µM (inactive).

Turning to `Nc1ncnc2c1ncn2CCCC(c1ccccc1)P(=O)(O)O` (centres undefined), the GI50 was > 100 µM (inactive) in assay [1]; > 100 µM (inactive) in assay [2]; > 100 µM (inactive) in assay [3]; > 100 µM (inactive) in [4]; 63 µM (inactive) in assay [5]; over 100 µM in [6]. The GI50 in assay [7], in [8], in assay [9], in assay [10], in assay [11] and in assay [12] was > 100 µM (inactive) each time. Moreover, the GI50 in [13], in assay [14], in assay [15] and in [16] was > 100 µM (inactive) in each case.

`CC(=O)OCC1OC(OC2CC3C(C)(C)C(OC(C)=O)CC[C@]3(C)C3CCC45CC4(CC[C@H]5C(C)CC(O)C4OC4(C)C)[C@]23C)C(O)C(O)C1O` (some centres undefined): the GI50 in assay [1] is 1.82 µM (inactive); in [2], 4.06 µM (inactive); in assay [3], 0.92 µM (active); in assay [4], 2.2 µM (inactive); in [5], 4.72 µM (inactive); in assay [6] it was 1.55 µM. Further, the GI50 in assay [7] is 7.98 µM (inactive); in assay [8] it was 3.35 µM (inactive); in assay [9], 5.06 µM (inactive); in [10], 3.68 µM (inactive); in assay [11] it was 1.79 µM (inactive); in assay [12] it was 0.0715 µM (active). For the same molecule, the GI50 in assay [13] is 2.29 µM (inactive); in assay [14] it was 3.89 µM (inactive); in assay [15], 2.09 µM (inactive); in assay [16], 1.98 µM (inactive); in [17], 0.189 µM (active); in assay [18], 5.56 µM (inactive).

As to `CC1(C)CC[C@]2(C(=O)O)CCC3(C)C(=CCC4[C@@]5(C)CC[C@H](OC6OCC(O)C(O)C6OC6OC(CO)C(O)C(O)C6O)C(C)(C)C5CC[C@]43C)C2C1` (some centres undefined), the GI50 was 1.93 µM (inactive) in assay [1]; 1.93 µM (inactive) in [2]; 2.46 µM (inactive) in assay [3]; 1.95 µM (inactive) in assay [4]; 2.18 µM (inactive) in assay [5]; 2.17 µM in [6]. For the same molecule, the GI50 in [7] is 1.87 µM (inactive); in assay [8] it was 2.04 µM (inactive); in assay [9] it was 1.55 µM (inactive); in assay [10], 2.16 µM (inactive); in assay [11], 2.1 µM (inactive); in assay [12], 2.67 µM (inactive). The GI50 was 1.89 µM (inactive) in [13]; 2.22 µM (inactive) in [14]; 1.86 µM (inactive) in [15]; 2.94 µM (inactive) in assay [16]; 2.98 µM (inactive) in [17]; 2.09 µM (inactive) in assay [18].

As to `COc1ccc2c(=O)c(-c3cc(OC)c(OC)cc3OC)coc2c1`, the GI50 is 2.19 µM (inactive) in assay [1]; 15.3 µM (inactive) in [2]; 2.35 µM (inactive) in [3]; 9.73 µM (inactive) in assay [4]; 4.16 µM (inactive) in assay [19]; 8.45 µM (inactive) in [5]. Moreover, the concentration for 50% growth inhibition (GI50) in assay [6] is 1.24 µM; in assay [7] it was 4.54 µM (inactive); in assay [8] it was 31.5 µM (inactive); in assay [9] it was > 43.2 µM (inactive); in assay [10], 34 µM (inactive); in assay [11], 2.48 µM (inactive). In addition, the GI50 in assay [12] was 19.2 µM (inactive); in assay [13], 13.3 µM (inactive); in assay [14], 3.3 µM (inactive); in [15] it was 5.41 µM (inactive); in assay [16], 11.3 µM (inactive); in [17] it was 2 µM (inactive). The GI50 in assay [18] was 3.72 µM (inactive).

For the molecule `CSc1ccc2c(cc1=O)[C@@H](NC(=O)c1ccc(F)cc1)CCc1cc(O)c(O)c(O)c1-2`, the GI50 is > 100 µM (inactive) in assay [1]; > 100 µM (inactive) in assay [2]; > 100 µM (inactive) in assay [3]; > 100 µM (inactive) in assay [4]; > 100 µM (inactive) in assay [5]; over 100 µM in assay [6]. Further, the GI50 in assay [7], in assay [8], in assay [9], in assay [10], in assay [11] and in [12] was > 100 µM (inactive) throughout. In addition, the GI50 in assay [13], in [14], in assay [15], in assay [16], in assay [17] and in assay [18] was > 100 µM (inactive) each time.

Source of the values: ChEMBL document CHEMBL1201862, “PubChem BioAssay data set” (2004).
